The results in this text go back to US20070154393A1, “Bioassay for volatile low molecular weight insecticides and methods of use” (priority 2005, published 2007).

Where two headings read alike, the source gives them in different places.

For data set [1], the system named is para-ts1 (para-R) strain of Drosophila (sodium channel point mutation). The format is in vivo. As to conditions: for Slope ± Std. Error (probit mortality line): Table 2, para-R, 24 hr. As to the method:
(§1) Four Drosophila strains were used, all obtained from the Bloomington Drosophila Stock Center (Indiana University; Bloomington, Ind.). The Canton-S strain was used as the insecticide-susceptible standard. […] Two resistant neurological-mutant strains were also tested. […] Flies were reared in 100-ml vials capped with acetate plugs (Fisher Scientific; Suwanee, Ga.) on a commercial diet (JAZZ-MIX; Fisher Scientific). […] Mixed-sex adults, less than 1-wk old, were used in bioassays.
(§2) All volatile insecticide stocks were prepared at 100 μg/μl in analytical grade acetone. Rather than weigh the highly volatile liquid insecticides (i.e., all compounds except benzothiophene), weight was determined based on the density-volume relationship of each compound. […] The insecticide synergists PBO (piperonyl butoxide) and DEF (SSS-tributyl-phosphoro-trithioate) were obtained from Fluka Chemical Co. (Basel, Switzerland) and Mobay Chemical Co. (Kansas City, Mo.). […] Synergist stocks were prepared at 100 μg/ml in analytical grade acetone.
(§3) Briefly, bioassays took place in 0.5-l glass jars with metal lids. Mixed-sex flies were isolated from lab colonies and placed in 4-ml dram vials in groups of ten, along with a dried piece of laboratory diet. The dram vials were capped with open-top septum caps that were covered with fine mesh (held in place by non-toxic glue). For bioassays, the assembled dram vials were placed into the 0.5-l jars along with a folded filter paper “tent” (Whatman #1; Vineland, N.J.). The filter paper was treated with either an insecticide dilution or acetone, the jar was sealed with the metal lid, and the bioassay proceeded for 24-hr at room temperature. Mortality was scored based on a complete lack of movement by the flies. Four concentrations plus an acetone control were tested for all insecticides. Between five and ten replicates were performed for each concentration range on each strain-insecticide combination. Synergist bioassays were performed with a slight modification. Synergist stocks were applied to dram vials at 100 μl per vial to provide assay concentrations of 10 μg per vial. […] After treatment, vials were held at an angle in a fume hood and rotated ¼-turn each minute until the acetone evaporated. Flies and diet were added as above and held for 1-hr. Assays were initiated, run, and scored as above.
(§4) Probit analysis was performed using PROC PROBIT in the SAS software package (SAS Institute; Cary, N.C.). If control mortality ever exceeded 10% in a given replicate, that replicate was discarded.

The test system of data set [2] is metabolically-resistant Hikone-R strain of Drosophila (elevated cytochrome P450). The class given is in vivo. The settings on record: Hikone-R, 24 hr. As to the method: as §1, §2, §3, §4

As for methyl formate, the “Slope ± Std. Error (probit mortality line)” value in data set [1] was 8.84 ± 1.46; in data set [2] (Table 2), 2.72 ± 0.68; in data set [2] (Table 3, no synergist), 2.72 ± 0.68.

In the case of ethyl formate, the “Slope ± Std. Error (probit mortality line)” value in data set [1] was found to be 7.11 ± 1.34; in data set [2] (Table 2), 12.50 ± 7.10; in data set [2] (Table 3, no synergist), 12.50 ± 7.10. Further, the “response of para-ts1 relative to Canton-S (LC50 ratio, FIG. 7B), in words” value in data set [1] (significance at p<0.05, method of Robertson and Preisler) is “non-significant tolerance”.
